Assay results: paper PMC7495481, “Sequence specificity analysis of the SETD2 protein lysine methyltransferase and discovery of a SETD2 super-substrate” (Communications Biology, 2020)
Where “and” joins values, the source holds several entries; their conditions need not be identical. Equal values may be shown once.

Experiments:
SETD2 [1] = biological target: T1, SETD2 (Homo sapiens, UniProt Q9BYW2); test: Peptide SPOT array target lysine methylation of selected non-histone peptides (Fig. 3b); format: biochemical; details: Exp1–Exp3, 3–6 µM SETD2, 0.76 µM AdoMet, 60 min, pH 9, listed as DS
T1 construct: SETD2 catalytic SET domain (amino acids 1347–1711, UniProt No: Q9BYW2); made in house; host or cells: E. coli
T1 sequence (Q9BYW2 1347-1711): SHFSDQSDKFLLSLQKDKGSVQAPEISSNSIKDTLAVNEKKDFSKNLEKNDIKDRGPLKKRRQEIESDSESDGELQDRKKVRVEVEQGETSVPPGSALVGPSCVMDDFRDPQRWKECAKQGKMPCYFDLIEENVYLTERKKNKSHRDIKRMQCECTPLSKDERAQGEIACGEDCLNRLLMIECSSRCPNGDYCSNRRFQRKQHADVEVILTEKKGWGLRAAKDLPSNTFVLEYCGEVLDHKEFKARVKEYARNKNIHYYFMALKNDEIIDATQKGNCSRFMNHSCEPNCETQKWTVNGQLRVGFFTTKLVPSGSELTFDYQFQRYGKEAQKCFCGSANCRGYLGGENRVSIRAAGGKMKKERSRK
From the text: However, we could identify 166 possible targets, which contain partial matches to the substrate specificity profile. The possible methylation of these 166 putative substrates was investigated at the peptide level. For this, fifteen amino acid long peptides containing the sequence of the non-histone targets surrounding the predicted target lysine were synthesized on a membrane. The H3K36 (29–43) peptide (spots A1, I9), the super-substrate peptide (spots A3, I11) and the corresponding lysine to alanine mutation peptides (spot A2, I10, and A4, I12) were included as positive and negative controls (Fig. 3a, Supplementary Fig. 4 and Supplementary Table 2). The methylation reactions and the detection of the methylation signals were performed in duplicates as described above. We observed that all of the investigated peptides were more weakly methylated than the super-substrate peptide. […] In the next step, 20 of the peptides were selected for further investigation based on the methylation intensity and the known functions of the proteins to confirm the methylation at the predicted target site. The peptides were synthesized on another membrane, now including the target lysine to alanine mutation control peptides in each case. The methylation reactions and the detection of the signal were conducted as described above (Fig. 3b, Supplementary Fig. 5 and Supplementary Table 3).
Fig. 3 Identification of non-histone substrates of SETD2. a Candidate non-histone peptide substrates were identified in the human proteome based on the SETD2 super-substrate specificity profile. The peptides were synthesized on a peptide SPOT array (Supplementary Table 2) and methylated by SETD2. As controls, the H3K36, H3K36A, ssK36 and ssK36A peptides were included on spots A1–A4 and I9–I12. The autoradiography image is an example of the obtained results. […] The quantification of the data of two experiments is shown in Supplementary Fig. 4. b Analysis of target lysine methylation of selected non-histone substrate peptides. Peptide SPOT arrays were synthesized containing the non-histone peptide substrates identified in panel A in addition to the lysine to alanine mutations presented on the array as every second spot (Supplementary Table 3). As controls, the H3K36, H3K36A, ssK36, and ssK36A mutant peptides were included on spot A1–A4 and C5–C8. The autoradiography image is an example of the obtained results. The quantification of the data of three experiments is shown in Supplementary Fig. 5. Peptides selected for furhter analysis are highlighted by blue circles. c Protein methylation of FBN1 and confirmation of the target lysine methylation. Both wild type (WT) and mutant (K666R) FBN1 were purified and equal amounts were methylated by SETD2 (2 µM). […] The size of FBN1 is indicated by an asterisk.
Peptide arrays containing fifteen amino acid long peptides were synthesized using the SPOT synthesis method[48] with an Autospot peptide array synthesizer (Intavis AG, Köln, Germany). After synthesis, the obtained membranes were pre-incubated in methylation buffer (20 mM Tris/HCl pH 9, 0.01% Triton X-100, 10 mM DTT, 1.5 mM MgCl2) for 5 min on a shaker. Thereafter, the membranes were incubated in methylation buffer supplemented with 0.76 µM radioactively labeled AdoMet (PerkinElmer) and 3–6 µM SETD2 enzyme for 60 min on a shaker. After methylation, the membranes were washed 5 times for 5 min in wash buffer (100 mM NH4HCO3, 1% SDS) and incubated in amplify NAMP100V (GE Healthcare) for 5 min. This was followed by the exposure of the membranes to a hyperfilm^TM high performance autoradiography (GE Healthcare) film at −80 °C in the dark. The films were developed with an Optimax Typ TR machine after different exposue times. For quantification the signal intensities were measured with the Phoretix^TM software and analyzed with Microsoft Excel.

SETD2 [2] = biological target: T1, SETD2; test: Steady-state peptide methylation kinetics (Michaelis-Menten); format: biochemical; details: 20–320 µM peptide; Michaelis-Menten fit; two independent experiments
Protocol: To further characterize the methylation kinetics of the super-substrate peptide, steady-state methylation experiments were performed using the super-substrate peptide in different concentrations ranging from 20 to 320 µM (Supplementary Fig. 3a). […] To further study the difference in peptide binding, inhibition of SETD2 by ssK36M and H3K36M inhibitor peptides was investigated (Supplementary Fig. 3b and c).
The H3K36 (27–43) and the H3K36M (27–43) peptides were purchased from Intavis AG (Köln, Germany) and the ssK36 peptide (29–43) and the ssK36M peptide (29–43) were from Innovative Peptide Solutions (Berlin, Germany). If not indicated otherwise, peptide methylation reactions were performed using 20 µM peptide and 6 µM SETD2 in 20 µl methylation buffer supplemented with 0.76 µM radioactive labeled AdoMet (PerkinElmer) for 3 h at 25 °C. The reactions were halted by the addition of Tricine-SDS-PAGE loading buffer and incubation for 5 min at 95 °C. […] The signals of the transferred radioactive labeled methyl groups were detected by autoradiography using a hyperfilm^TM high performance autoradiography film (GE Healthcare) at −80 °C in the dark. […]
Multiple turnover kinetics were determined using variable peptide concentrations (20–320 µM). […]

APRFGGVKRPNRYRP [ssK36, super-substrate peptide with four amino acid exchanges (A31R, T32F, K37R, H39N)]
Relative methylation signal, Average (SETD2 [1]): 0.95 and 0.9901
Km (SETD2 [2]): 45 µM
